{"source": "patent US7741020B2", "about": "“Methods for detecting Lp-PLA2 activity and inhibition of Lp-PLA2 activity” (Glaxo Group Limited, priority 2004, dated 2010)", "key": {"[1]": {"molecular_target": "T1, Lp-PLA2 (Homo sapiens, UniProt Q13093)", "T1 sequence (Q13093 22-441)": "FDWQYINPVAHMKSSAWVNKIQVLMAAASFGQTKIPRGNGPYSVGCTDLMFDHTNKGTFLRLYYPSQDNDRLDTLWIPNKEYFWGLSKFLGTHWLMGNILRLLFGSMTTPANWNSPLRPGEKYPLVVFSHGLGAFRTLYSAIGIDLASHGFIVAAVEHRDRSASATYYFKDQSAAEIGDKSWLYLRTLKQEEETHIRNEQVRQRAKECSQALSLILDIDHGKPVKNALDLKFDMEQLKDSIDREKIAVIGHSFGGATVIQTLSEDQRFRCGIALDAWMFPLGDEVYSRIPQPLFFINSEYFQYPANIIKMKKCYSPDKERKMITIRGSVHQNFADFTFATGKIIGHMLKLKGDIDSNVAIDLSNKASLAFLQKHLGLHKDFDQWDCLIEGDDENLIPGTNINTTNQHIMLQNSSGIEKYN", "assay": "Modified drug-sensitive colorimetric assay, plasma", "type": "biochemical", "conditions": "plasma of individual human subjects", "text": "Assay Procedure • 1. […] Use duplicates for each sample. • 4.\nPre-dose plasma samples for each subject on day 0 of the study were also available."}, "[2]": {"molecular_target": "T1, Lp-PLA2", "assay": "Auto PAF AH assay (Azwell kit, Olympus Au640 analyzer)", "type": "biochemical", "conditions": "50 mg, plasma of individual human subjects", "experimental": "The Auto PAF AH assay kit, manufactured by Azwell (Osaka, Japan), is commercially available in the United States through Karlan Research Products Corporation (Santa Rosa, Calif.).\nPrepare the following reagents: • R1: Use this buffer solution as supplied in Azwell Auto PAF AH assay kit. Store at 4° C. Protect from light. • R2: Prepare the R2 working solution by mixing R2A and R2B (supplied in Azwell Auto PAF AH assay kit) in the proportion of 19:1, Store at 4° C. Protect from light. • 3. […] Briefly centrifuge to spin down fibrin clots/particles in the plasma. • 4. Place Sarstedt tubes containing plasma samples onto sample tubes that fit the instrument. Run plasma samples through the Au640 analyzer. After choosing the PAF AH assay program, the analytical procedure described below is performed automatically: • Test sample (2 μL)+R1 (240 μL), 37° C., 5 minutes [0-5 minutes] • Add R2 (80 μL), 37° C., 5 minutes [5-10 minutes] • Measure the absorbance at 410 nm and 480 nm [6-8 minutes] • Calculate PAF AH activity (IU/L) • 5."}}, "note": "Several values for one entry are separate records, joined by “and”; a condition that tells them apart may be missing. Equal entries are not always repeated.", "data": [{"smiles": "COCCN1CCC(N(Cc2ccc(-c3ccc(C(F)(F)F)cc3)cc2)C(=O)Cn2c(SCc3cccc(F)c3F)cc(=O)c3ccccc32)CC1", "note": "[Formula I]", "values": [{"measurement": "% Inhibition Drug-Sensitive Colorimetric", "setting": "[1]; 50 mg, 0.5 hr after dosing", "value": "16.91% and 18.69% and 26.95%"}, {"measurement": "Lp-PLA2 Activity Drug-Sensitive Colorimetric", "setting": "[1]; 50 mg, 0.5 hr after dosing", "value": "89.99 nmol/min/mL and 69.79 nmol/min/mL and 81.70 nmol/min/mL and 32.96 nmol/min/mL and 141.14 nmol/min/mL"}, {"measurement": "Lp-PLA2 Activity Drug-Sensitive Colorimetric", "setting": "[1]; 50 mg, 1 hr after dosing", "value": "17.15 nmol/min/mL and 39.10 nmol/min/mL and 24.96 nmol/min/mL and 22.46 nmol/min/mL and 37.07 nmol/min/mL"}, {"measurement": "% Inhibition Drug-Sensitive Colorimetric", "setting": "[1]; 50 mg, 4 hr after dosing", "value": 85.71, "unit": "%"}, {"measurement": "Lp-PLA2 Activity Drug-Sensitive Colorimetric", "setting": "[1]; 50 mg, 5 hr after dosing", "value": "20.74 nmol/min/mL and 31.77 nmol/min/mL and 16.58 nmol/min/mL and 15.83 nmol/min/mL and 18.35 nmol/min/mL"}, {"measurement": "Lp-PLA2 Activity Drug-Sensitive Colorimetric", "setting": "[1]; 50 mg, 6 hr after dosing", "value": "23.71 nmol/min/mL and 66.08 nmol/min/mL and 21.01 nmol/min/mL and 25.84 nmol/min/mL and 25.12 nmol/min/mL"}, {"measurement": "% Inhibition Drug-Sensitive Colorimetric", "setting": "[1]; 50 mg, 12 hr after dosing", "value": "60.73% and 36.04% and 55.61%"}, {"measurement": "Lp-PLA2 Activity Drug-Sensitive Colorimetric", "setting": "[1]; 50 mg, 12 hr after dosing", "value": "34.83 nmol/min/mL and 76.84 nmol/min/mL and 111.00 nmol/min/mL and 53.72 nmol/min/mL and 44.60 nmol/min/mL"}, {"measurement": "% Inhibition Drug-Sensitive Colorimetric", "setting": "[1]; 120 mg, 0.5 hr after dosing", "value": "88.89% and 85.22% and 45.29% and 41.39%"}, {"measurement": "Lp-PLA2 Activity Drug-Sensitive Colorimetric", "setting": "[1]; 120 mg, 0.5 hr after dosing", "value": "31.08 nmol/min/mL and 20.14 nmol/min/mL and 19.87 nmol/min/mL and 63.95 nmol/min/mL and 64.40 nmol/min/mL"}, {"measurement": "% Inhibition Drug-Sensitive Colorimetric", "setting": "[1]; 120 mg, 1 hr after dosing", "value": 88.85, "unit": "%"}, {"measurement": "Lp-PLA2 Activity Drug-Sensitive Colorimetric", "setting": "[1]; 120 mg, 1 hr after dosing", "value": "19.69 nmol/min/mL and 23.29 nmol/min/mL and 14.99 nmol/min/mL and 30.22 nmol/min/mL and 18.74 nmol/min/mL"}, {"measurement": "Lp-PLA2 Activity Drug-Sensitive Colorimetric", "setting": "[1]; 120 mg, 2 hr after dosing", "value": "19.69 nmol/min/mL and 19.54 nmol/min/mL and 12.22 nmol/min/mL and 29.51 nmol/min/mL and 10.11 nmol/min/mL"}, {"measurement": "Lp-PLA2 Activity Drug-Sensitive Colorimetric", "setting": "[1]; 120 mg, 3 hr after dosing", "value": "13.17 nmol/min/mL and 20.61 nmol/min/mL and 15.08 nmol/min/mL and 30.49 nmol/min/mL and 11.51 nmol/min/mL"}, {"measurement": "Lp-PLA2 Activity Drug-Sensitive Colorimetric", "setting": "[1]; 120 mg, 4 hr after dosing", "value": "7.30 nmol/min/mL and 21.27 nmol/min/mL and 16.18 nmol/min/mL and 29.42 nmol/min/mL and 11.21 nmol/min/mL"}, {"measurement": "Lp-PLA2 Activity Drug-Sensitive Colorimetric", "setting": "[1]; 120 mg, 5 hr after dosing", "value": "22.94 nmol/min/mL and 21.36 nmol/min/mL and 18.14 nmol/min/mL and 35.46 nmol/min/mL and 12.22 nmol/min/mL"}, {"measurement": "Lp-PLA2 Activity Drug-Sensitive Colorimetric", "setting": "[1]; 120 mg, 6 hr after dosing", "value": "20.65 nmol/min/mL and 21.39 nmol/min/mL and 18.74 nmol/min/mL and 39.29 nmol/min/mL and 17.01 nmol/min/mL"}, {"measurement": "Lp-PLA2 Activity Drug-Sensitive Colorimetric", "setting": "[1]; 120 mg, 9 hr after dosing", "value": "27.16 nmol/min/mL and 27.87 nmol/min/mL and 26.18 nmol/min/mL and 50.81 nmol/min/mL and 21.03 nmol/min/mL"}, {"measurement": "% Inhibition Auto PAF AH", "setting": "[2]; 0.5 hr after dosing", "value": "10.84% and 0.65% and −6.65% and 10.66% and 8.03%"}, {"measurement": "Lp-PLA2 Activity Auto PAF AH", "setting": "[2]; 0.5 hr after dosing", "value": "456.50 nmol/min/mL and 308.00 nmol/min/mL and 393.00 nmol/min/mL and 272.50 nmol/min/mL and 647.00 nmol/min/mL"}, {"measurement": "% Inhibition Auto PAF AH", "setting": "[2]; 1 hr after dosing", "value": "11.15% and 14.00% and 19.04%"}, {"measurement": "Lp-PLA2 Activity Auto PAF AH", "setting": "[2]; 1 hr after dosing", "value": "271.00 nmol/min/mL and 605.00 nmol/min/mL and 242.00 nmol/min/mL and 340.50 nmol/min/mL"}, {"measurement": "% Inhibition Auto PAF AH", "setting": "[2]; 2 hr after dosing", "value": "10.98% and 20.47% and 9.03%"}, {"measurement": "Lp-PLA2 Activity Auto PAF AH", "setting": "[2]; 2 hr after dosing", "value": "271.50 nmol/min/mL and 559.50 nmol/min/mL and 282.00 nmol/min/mL and 348.00 nmol/min/mL"}, {"measurement": "Lp-PLA2 Activity Auto PAF AH", "setting": "[2]; 3 hr after dosing", "value": "277.50 nmol/min/mL and 602.50 nmol/min/mL and 435.00 nmol/min/mL and 287.50 nmol/min/mL and 348.00 nmol/min/mL"}, {"measurement": "% Inhibition Auto PAF AH", "setting": "[2]; 4 hr after dosing", "value": "15.90% and 10.52% and 0.32% and 8.14%"}, {"measurement": "Lp-PLA2 Activity Auto PAF AH", "setting": "[2]; 4 hr after dosing", "value": "256.50 nmol/min/mL and 629.50 nmol/min/mL and 409.00 nmol/min/mL and 309.00 nmol/min/mL and 338.50 nmol/min/mL"}, {"measurement": "% Inhibition Auto PAF AH", "setting": "[2]; 5 hr after dosing", "value": "10.33% and 7.39% and 24.80% and 9.84% and 8.68%"}, {"measurement": "Lp-PLA2 Activity Auto PAF AH", "setting": "[2]; 5 hr after dosing", "value": "273.50 nmol/min/mL and 651.50 nmol/min/mL and 385.00 nmol/min/mL and 279.50 nmol/min/mL and 336.50 nmol/min/mL"}, {"measurement": "% Inhibition Auto PAF AH", "setting": "[2]; 6 hr after dosing", "value": "10.33% and 8.74% and 24.12% and 11.80%"}, {"measurement": "Lp-PLA2 Activity Auto PAF AH", "setting": "[2]; 6 hr after dosing", "value": "273.50 nmol/min/mL and 642.00 nmol/min/mL and 388.50 nmol/min/mL and 306.50 nmol/min/mL and 325.00 nmol/min/mL"}, {"measurement": "% Inhibition Auto PAF AH", "setting": "[2]; 9 hr after dosing", "value": "6.23% and 18.76% and 12.99% and 6.61% and 15.33%"}]}]}
